Test results reported in patent US9980943B2, “Methods of treating muscular dystrophy” (BOARD OF REGENTS OF THE NEVADA SYSTEM OF HIGHER EDUCATION, …, priority 2013, dated 2018).

Legend:
Format in all cases: cell-based, mouse
[1] = test system: β-galactosidase in CMV-LacZ C2C12 myotubes; experiment: CMV-LacZ secondary screen in C2C12 myotubes (β-Gal stabilizing assay); settings: for CMV-LACZ in Myotubes, value relative to DMSO: SU9516 analogs, C2C12 CMV-LacZ, N=2; for CMV-LACZ in Myotubes, signal relative to DMSO: C2C12 CMV-LacZ myotubes, fold relative to DMSO
In short: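 A secondary screen identifies compounds that stabilize β-gal independently of the native promoter, using CMV-LacZ C2C12 cells. Curves span 0.5–40 μM at six levels, in duplicate.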

[2] = test system: α7 integrin (LacZ reporter in α7+/LacZ myotubes); experiment: Myotube α7 integrin FDG assay (Burkin assay in myotubes, 96-well); settings: for Burkin Assay in Myotubes, value relative to DMSO: SU9516 analogs, 96-well, N=3-6
[3] = test system: β-galactosidase in CMV-LacZ C2C12 myoblasts; experiment: CMV-LacZ secondary screen in C2C12 myoblasts (β-Gal stabilizing assay); settings: for CMV-LACZ in Myoblasts, value relative to DMSO: SU9516 analogs, C2C12 CMV-LacZ, N=2; for CMV-LACZ in Myoblasts (β-galactosidase activity relative to DMSO): CMV-LacZ C2C12 myoblasts
In short: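 Dose-response runs at 0.5–40 μM (0.5, 1, 5, 10, 20, 40 μM; N=2 per point) used a clonal C2C12 line carrying CMV-LacZ. Cells were assayed as myoblasts or as differentiated myotubes, and β-galactosidase levels were read with the FDG fluorogenic substrate.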

[4] = test system: α7 integrin (LacZ reporter in α7βgal+/− myoblasts); experiment: Myoblast α7+/LacZ integrin FDG assay (Burkin assay in myoblasts, 96-well); settings: 96-well; for Burkin Assay in Myoblasts, value relative to DMSO: SU9516 analogs, N=3-6; for Burkin Assay in Myoblasts, signal relative to DMSO: α7+/LacZ myoblasts

N#C/C(=C1/C(=O)Nc2ccc(Br)cc21)c1ccccn1 [MLS001013431-01]
CMV-LACZ in Myotubes, value relative to DMSO ([1]; 0.5 uM): 0.8638 | CMV-LACZ in Myotubes, value relative to DMSO ([1]; 1 uM): 1.1257 | CMV-LACZ in Myotubes, value relative to DMSO ([1]; 5 uM): 0.9388 | CMV-LACZ in Myotubes, value relative to DMSO ([1]; 10 uM): 0.9162 | CMV-LACZ in Myotubes, value relative to DMSO ([1]; 20 uM): 1.0682 | CMV-LACZ in Myotubes, value relative to DMSO ([1]; 40 uM): 1.2059 | Burkin Assay in Myotubes, value relative to DMSO ([2]; 0.5 uM): 1.238 | Burkin Assay in Myotubes, value relative to DMSO ([2]; 1 uM): 1.0097 | Burkin Assay in Myotubes, value relative to DMSO ([2]; 5 uM): 0.8507 | Burkin Assay in Myotubes, value relative to DMSO ([2]; 10 uM): 0.8506 | Burkin Assay in Myotubes, value relative to DMSO ([2]; 20 uM): 0.7376 | Burkin Assay in Myotubes, value relative to DMSO ([2]; 40 uM): 0.7069 | CMV-LACZ in Myoblasts, value relative to DMSO ([3]; 0.5 uM): 0.9906 | CMV-LACZ in Myoblasts, value relative to DMSO ([3]; 1 uM): 1.0640 | CMV-LACZ in Myoblasts, value relative to DMSO ([3]; 5 uM): 0.8366 | CMV-LACZ in Myoblasts, value relative to DMSO ([3]; 10 uM): 0.6673 | CMV-LACZ in Myoblasts, value relative to DMSO ([3]; 20 uM): 0.5904 | CMV-LACZ in Myoblasts, value relative to DMSO ([3]; 40 uM): 0.6670 | Burkin Assay in Myoblasts, value relative to DMSO ([4]; 0.5 uM): 1.202 | Burkin Assay in Myoblasts, value relative to DMSO ([4]; 1 uM): 1 | Burkin Assay in Myoblasts, value relative to DMSO ([4]; 5 uM): 0.7077 | Burkin Assay in Myoblasts, value relative to DMSO ([4]; 10 uM): 0.5311 | Burkin Assay in Myoblasts, value relative to DMSO ([4]; 20 uM): 0.4522 | Burkin Assay in Myoblasts, value relative to DMSO ([4]; 40 uM): 0.3362

COc1ccc(NC(=O)C2(N(C(=O)Cn3nnnc3N)c3ccc(OC)cc3)CCCCC2)cc1 [MLS001030268-01]
CMV-LACZ in Myotubes, signal relative to DMSO ([1]; 0.5 uM): 0.8830 | CMV-LACZ in Myotubes, signal relative to DMSO ([1]; 1 uM): 1.1711 | CMV-LACZ in Myotubes, signal relative to DMSO ([1]; 5 uM): 1.1318 | CMV-LACZ in Myotubes, signal relative to DMSO ([1]; 10 uM): 1.1128 | CMV-LACZ in Myotubes, signal relative to DMSO ([1]; 20 uM): 0.9365 | CMV-LACZ in Myotubes, signal relative to DMSO ([1]; 40 uM): 0.9506 | Burkin Assay in Myotubes, α7 integrin LacZ reporter signal relative to DMSO ([2]; 0.5 uM): 1.076 | Burkin Assay in Myotubes, α7 integrin LacZ reporter signal relative to DMSO ([2]; 1 uM): 1.161 | Burkin Assay in Myotubes, α7 integrin LacZ reporter signal relative to DMSO ([2]; 5 uM): 1.213 | Burkin Assay in Myotubes, α7 integrin LacZ reporter signal relative to DMSO ([2]; 10 uM): 0.9249 | Burkin Assay in Myotubes, α7 integrin LacZ reporter signal relative to DMSO ([2]; 20 uM): 0.6277 | Burkin Assay in Myotubes, α7 integrin LacZ reporter signal relative to DMSO ([2]; 40 uM): 0.7606 | CMV-LACZ in Myoblasts (β-galactosidase activity relative to DMSO) ([3]; 0.5 uM): 1.0809 | CMV-LACZ in Myoblasts (β-galactosidase activity relative to DMSO) ([3]; 1 uM): 1.1550 | CMV-LACZ in Myoblasts (β-galactosidase activity relative to DMSO) ([3]; 5 uM): 1.1347 | CMV-LACZ in Myoblasts (β-galactosidase activity relative to DMSO) ([3]; 10 uM): 1.1787 | CMV-LACZ in Myoblasts (β-galactosidase activity relative to DMSO) ([3]; 20 uM): 0.7467 | CMV-LACZ in Myoblasts (β-galactosidase activity relative to DMSO) ([3]; 40 uM): 0.5556 | Burkin Assay in Myoblasts, signal relative to DMSO ([4]; 0.5 uM): 1.239 | Burkin Assay in Myoblasts, signal relative to DMSO ([4]; 1 uM): 1.143 | Burkin Assay in Myoblasts, signal relative to DMSO ([4]; 5 uM): 1.49 | Burkin Assay in Myoblasts, signal relative to DMSO ([4]; 10 uM): 0.8716 | Burkin Assay in Myoblasts, signal relative to DMSO ([4]; 20 uM): 0.726 | Burkin Assay in Myoblasts, signal relative to DMSO ([4]; 40 uM): 0.6069
